In paper PMC11903733 (Frontiers in Pharmacology, 2025):

Target: T1, LSD2 (Homo sapiens, UniProt Q8NB78)
T1 construct: full-length LSD2; by word order LSD2 from ActiveMotif
T1 sequence (Q8NB78 1-822): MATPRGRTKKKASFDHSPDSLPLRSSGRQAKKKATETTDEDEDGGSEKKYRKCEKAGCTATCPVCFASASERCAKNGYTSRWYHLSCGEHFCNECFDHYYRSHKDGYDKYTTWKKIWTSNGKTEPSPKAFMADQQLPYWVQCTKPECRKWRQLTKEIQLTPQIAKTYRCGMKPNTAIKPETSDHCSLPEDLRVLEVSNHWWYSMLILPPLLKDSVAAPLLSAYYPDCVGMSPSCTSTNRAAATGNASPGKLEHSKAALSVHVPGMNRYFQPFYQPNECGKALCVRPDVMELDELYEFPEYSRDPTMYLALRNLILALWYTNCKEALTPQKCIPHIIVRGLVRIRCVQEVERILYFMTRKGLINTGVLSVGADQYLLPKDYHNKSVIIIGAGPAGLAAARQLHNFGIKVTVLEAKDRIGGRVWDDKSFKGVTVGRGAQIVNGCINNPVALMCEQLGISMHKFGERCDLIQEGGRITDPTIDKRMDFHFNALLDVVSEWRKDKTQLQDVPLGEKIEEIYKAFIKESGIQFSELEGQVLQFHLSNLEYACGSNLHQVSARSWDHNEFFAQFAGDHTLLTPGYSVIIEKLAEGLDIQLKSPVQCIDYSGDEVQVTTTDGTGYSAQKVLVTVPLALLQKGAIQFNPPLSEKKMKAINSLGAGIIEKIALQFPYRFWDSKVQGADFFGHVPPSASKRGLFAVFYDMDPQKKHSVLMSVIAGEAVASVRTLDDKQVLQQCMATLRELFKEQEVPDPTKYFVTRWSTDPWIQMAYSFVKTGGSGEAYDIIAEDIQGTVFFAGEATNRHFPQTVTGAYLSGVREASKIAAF
Assay: Lance Ultra demethylase TR-FRET enzyme inhibition assay, LSD2
Assay type: biochemical
Settings: full-length LSD2 172 nM, Bio-H3K4me2 substrate, 1 h, mean ± SD, n = 3
Text: These were utilized in both in vitro and in vivo assays. Iscove’s Modified Dulbecco’s Medium (IMDM), Roswell Park Memorial Institute (RPMI)-1640 medium, fetal bovine serum (FBS) and penicillin/streptomycin were purchased from Gibco (Grand Island, New Nork, United States). Recombinant human LSD1 (172–852 aa) and full-length LSD2 were obtained from Sino Biological Inc. and ActiveMotif.
The inhibitory effects of the tested compounds on LSD1 and LSD2 enzymes were methodically assessed using the Lance Ultra LSD1 Histone H3-Lysine 4 Demethylase Assay Kit from PerkinElmer, adhering to previously published methodologies ([Li et al., 2022]). In brief, the reaction was initiated by adding 4 μL of enzyme solution, with concentrations specified at 2 nM for LSD1 or 172 nM for LSD2, 4 μL of substrate solution [2.5 μM Bio-H3K4me2 ([…])], and 2 μL of tested compound to a Tris buffer (50 mM Tris-HCl, 50 mM NaCl, 0.01% Tween 20, 1 mM DTT, 10 μM FAD, 10% glycerol, pH 9.0) at room temperature and incubated for 1 h. Following the incubation, 5 μL of a detection mixture, comprising an Eu-labeled H3K4me0 antibody and ULight Streptavidin, was added to the reaction. The fluorescence intensity was then measured employing TR-FRET mode with excitation and emission wavelengths set at 320 nm and 665 nm, respectively, utilizing the Envision (PerkinElmer) system. Each experiment was performed in triplicate.

`O=S(=O)(c1ccc(C(O)CO)c(C(F)(F)F)c1)N1CCc2cc(C3CC3NCC3CCNCC3)ccc21` (stereo not shown) [LTM-1] showed an IC50 of over 5 µM.
